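Interpolation was linear, between the two tested concentrations surrounding the appropriate level; five concentrations were tested over 48 hours in 96-well plates. At the GI50, growth is halved.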 The source made the active and inactive calls. No stated cut-off is given here; in the data, active = GI50 up to about 1.1 µM and inactive = higher.
Legend:
Assay in all cases: NCI-60 cell line screen, 48 h
M14 = tested on: M14
UACC-62 = tested on: UACC-62
RPMI-8226 = tested on: RPMI-8226
KM12 = tested on: KM12
SK-MEL-28 = tested on: SK-MEL-28
SW-620 = tested on: SW-620
RXF 393 = tested on: RXF 393
SK-MEL-5 = tested on: SK-MEL-5
SK-MEL-2 = tested on: SK-MEL-2
HOP-92 = tested on: HOP-92
OVCAR-3 = tested on: OVCAR-3
A498 = tested on: A498
EKVX = tested on: EKVX
PC-3 = tested on: PC-3
CAKI-1 = tested on: CAKI-1
UO-31 = tested on: UO-31
MCF7 = tested on: MCF7
SNB-19 = tested on: SNB-19
IGROV-1 = tested on: IGROV-1
MDA-MB-231 = tested on: MDA-MB-231
MDA-N = tested on: MDA-N
A549 = tested on: A549
HOP-62 = tested on: HOP-62
K562 = tested on: K562
MDA-MB-435 = tested on: MDA-MB-435
HL-60 = tested on: HL-60
DU-145 = tested on: DU-145
HT-29 = tested on: HT-29
OVCAR-5 = tested on: OVCAR-5
CCRF-CEM = tested on: CCRF-CEM
TK-10 = tested on: TK-10
Malme-3M = tested on: Malme-3M
U-251 = tested on: U-251
OVCAR-8 = tested on: OVCAR-8
NCI-H460 = tested on: NCI-H460
NCI-H226 = tested on: NCI-H226
COLO 205 = tested on: COLO 205
OVCAR-4 = tested on: OVCAR-4
T47D = tested on: T47D
SF-295 = tested on: SF-295
MOLT-4 = tested on: MOLT-4
HCT-116 = tested on: HCT-116
NCI-H23 = tested on: NCI-H23
HCT-15 = tested on: HCT-15
ACHN = tested on: ACHN
786-0 = tested on: 786-0
NCI-H522 = tested on: NCI-H522
SN12C = tested on: SN12C
UACC-257 = tested on: UACC-257
BT-549 = tested on: BT-549
NCI/ADR-RES = tested on: NCI/ADR-RES
LOX IMVI = tested on: LOX IMVI
HCC 2998 = tested on: HCC 2998
SNB-75 = tested on: SNB-75
SF-539 = tested on: SF-539
SF-268 = tested on: SF-268
SK-OV-3 = tested on: SK-OV-3

Measured: GI50

O=C1NC(=S)NC(=O)C1C(c1ccc(Cl)cc1)C1C(=O)NC(=S)NC1=O.c1ccncc1
inactive: M14 > 100 µM | UACC-62 > 100 µM | RPMI-8226 > 100 µM | KM12 > 100 µM | SK-MEL-28 > 100 µM | SW-620 > 100 µM | RXF 393 > 100 µM | SK-MEL-5 > 100 µM | SK-MEL-2 > 100 µM | HOP-92 > 100 µM | OVCAR-3 > 100 µM | A498 > 100 µM | EKVX 86.1 µM | PC-3 > 100 µM | CAKI-1 > 100 µM | UO-31 > 100 µM | MCF7 > 100 µM | SNB-19 > 100 µM | IGROV-1 > 100 µM | MDA-MB-231 > 100 µM | MDA-N > 100 µM | A549 > 100 µM | HOP-62 > 100 µM | K562 > 100 µM | MDA-MB-435 > 100 µM | HL-60 > 100 µM | DU-145 > 100 µM | HT-29 > 100 µM | OVCAR-5 > 100 µM | CCRF-CEM > 100 µM | TK-10 > 100 µM | Malme-3M 60.8 µM | U-251 > 100 µM | OVCAR-8 > 100 µM | NCI-H460 > 100 µM | NCI-H226 > 100 µM | COLO 205 > 100 µM | OVCAR-4 > 100 µM | T47D > 100 µM | SF-295 > 100 µM | MOLT-4 > 100 µM | HCT-116 > 100 µM | NCI-H23 > 100 µM | ACHN > 100 µM | 786-0 > 100 µM | NCI-H522 > 100 µM | SN12C > 100 µM | UACC-257 > 100 µM | BT-549 > 100 µM | NCI/ADR-RES > 100 µM | LOX IMVI > 100 µM
> 100 µM: HCT-15

COC(=O)[C@]1(c2cc3ccccc3[nH]2)CC2CN(C(=O)OCc3ccccc3)C1C=C2OC (stereo not given in full)
inactive: M14 20.8 µM | UACC-62 16.8 µM | RPMI-8226 26.5 µM | KM12 29 µM | HCC 2998 21.5 µM | SK-MEL-28 38 µM | SW-620 41.5 µM | RXF 393 22.7 µM | SK-MEL-2 17.5 µM | HOP-92 32.5 µM | SNB-75 23 µM | OVCAR-3 24 µM | EKVX 36.5 µM | PC-3 26.7 µM | CAKI-1 28.5 µM | MCF7 25.6 µM | SNB-19 42.1 µM | IGROV-1 42.7 µM | MDA-MB-231 19.9 µM | MDA-N 32.3 µM | A549 31.5 µM | HOP-62 31 µM | K562 37.4 µM | MDA-MB-435 20.7 µM | HL-60 22.8 µM | SF-539 25.4 µM | DU-145 35.5 µM | HT-29 25.7 µM | OVCAR-5 21.3 µM | CCRF-CEM 24.8 µM | TK-10 48.1 µM | SF-268 37.2 µM | Malme-3M 28.9 µM | U-251 26.6 µM | OVCAR-8 43.4 µM | NCI-H460 33.1 µM | SK-OV-3 36.9 µM | NCI-H226 23.1 µM | COLO 205 19 µM | OVCAR-4 24.9 µM | T47D 35.8 µM | SF-295 27.2 µM | MOLT-4 22.2 µM | HCT-116 28.8 µM | NCI-H23 40.7 µM | ACHN 25.8 µM | 786-0 36.7 µM | NCI-H522 27.2 µM | SN12C 36.1 µM | UACC-257 23 µM | BT-549 31 µM | NCI/ADR-RES 38.3 µM | LOX IMVI 34 µM
34.8 µM: HCT-15

CN(C)Cc1cc(/C=C/C(=O)c2ccc(Br)cc2)cc(CN(C)C)c1O
inactive: M14 31.2 µM | UACC-62 20.4 µM | RPMI-8226 3.54 µM | KM12 13.4 µM | HCC 2998 14 µM | SK-MEL-28 17.1 µM | SW-620 19.1 µM | RXF 393 19.2 µM | SK-MEL-5 19.6 µM | SK-MEL-2 26.2 µM | SNB-75 12.5 µM | OVCAR-3 20.8 µM | A498 13.6 µM | EKVX 20.2 µM | PC-3 26.6 µM | CAKI-1 8.47 µM | UO-31 10.7 µM | MCF7 22.6 µM | SNB-19 20.3 µM | IGROV-1 8.95 µM | MDA-MB-231 14.7 µM | MDA-N 17.1 µM | A549 29.2 µM | HOP-62 30.1 µM | K562 25.1 µM | MDA-MB-435 16.9 µM | HL-60 6.84 µM | SF-539 13.1 µM | DU-145 15.7 µM | HT-29 18.8 µM | OVCAR-5 35.2 µM | CCRF-CEM 4.06 µM | TK-10 12.8 µM | SF-268 14.8 µM | Malme-3M 16.7 µM | OVCAR-8 29.2 µM | NCI-H460 19.3 µM | SK-OV-3 29.8 µM | COLO 205 14.6 µM | T47D 18.5 µM | SF-295 21.8 µM | MOLT-4 9.95 µM | HCT-116 14.8 µM | ACHN 11.5 µM | 786-0 16 µM | SN12C 15.6 µM | UACC-257 17.2 µM | BT-549 15.1 µM | NCI/ADR-RES 36.6 µM

From ChEMBL document CHEMBL1201862, “PubChem BioAssay data set” (2004)
